What follows are molecules tested on acetyl transferase from Taxus baccata (assay: Enzymatic acetylation of substrates in the enzyme reactor (substrate specificity)). Conditions: used as in the example in place of 10-DAB; compared with 10-deacetyl baccatin III.
Assay type: biochemical
Method: The synthesis in the enzyme reactor is carried out under the following conditions: The solvent used in the process is a 1:4 mixture of chloroform and heptane.

| Molecule | acetylation as substrate of the acetyl transferase |
| --- | --- |
| CC(=O)O[C@@]12CO[C@@H]1C[C@H](O)[C@@]1(C)C(=O)[C@H](O)C3=C(C)[C@@H](OC(=O)[C@H](O)[C@@H](NC(=O)c4ccccc4)c4ccccc4)C[C@@](O)([C@@H](OC(=O)c4ccccc4)[C@H]21)C3(C)C [10-Deacetyl taxol] | significantly weaker as a substrate |
| baccatin III | not acetylated |
| CC(=O)O[C@H]1C(=O)[C@@]2(C)[C@H]([C@H](OC(=O)c3ccccc3)[C@]3(O)C[C@H](OC(=O)[C@H](O)[C@@H](NC(=O)c4ccccc4)c4ccccc4)C(C)=C1C3(C)C)[C@]1(OC(C)=O)CO[C@@H]1C[C@@H]2O [taxol] | not acetylated |
